According to ChEMBL document CHEMBL1125945, “Tripyl-convergent total synthesis of a homochiral benzoindane-fused prostacyclin analog” (Bioorg Med Chem Lett, 1991):

Species on record: Homo sapiens
Test: Compound was tested for inhibitory activity against collagen induced platelet aggregation
Format: functional

For `O=C(O)COc1cccc2c1[C@H]1C[C@@H](O)[C@H](C#C[C@@H](O)C3CCCCC3)[C@H]1C2`, which IC50 is on record?
Its IC50 is 2500 nM.
